{
  "source": "patent US10955421B2",
  "about": "“Detection of membrane proteins” (Oxford University Innovation Limited, priority 2017, dated 2021)",
  "key": {"[1]": {"test_system": "human P2Y1 purinergic receptor (P2Y1R)", "experiment": "Native mass spectrometry of P2Y1R ligand binding in Fos-Choline-16", "description": "P2Y1R and P2Y1R-MRS2500 complex were prepared as described in Zhang et al., Nature, 2015, 520, 317.\n(§1) Purified GPCRs were buffer exchanged into 50-200 mM ammonium acetate containing Fos-Choline detergents at 2 times critical micelle concentration (CMC) by using Bio-Spin size exclusion spin column (Bio-rad) prior to mass spectrometer analysis. Detergent exchange could be also performed by size exclusion chromatography equipped with FPLC system. Protein samples were fractionized by the size exclusion columns equilibrated with 50-200 mM ammonium acetate containing Fos-choline detergents at 2 times CMC, and the protein fractions were collected and concentrated by centrifugation-based protein concentrators Vivaspin.\nThe measurement of GPCRs was performed on a modified Synapt G1 (Waters) or a modified Q-Exactive (Thermo) mass spectrometer. The data in Examples 2 and 4 were obtained using a Q-Exactive mass spectrometer, whereas the data in Example 3 were obtained using a Synapt G1 mass spectrometer.\nThe Q-Exactive mass spectrometer was set up according to Gault et al. (Nat. Methods 13, 333-336, 2016). Briefly, a gentle voltage gradient was applied (injection flatapole, inter flatapole, bent flatapole, transfer multipole: 7.9, 6.94, 5.9, 4 V respectively). The acceleration voltage applied in HCD cell was optimized for GPCRs (60-150 V) to remove the detergent micelles from protein ions. Spectra were acquired with ten microscans and the noise level parameter of 3 was applied. Backing pressure was maintained at 1.05-1.3×10^−9 mBar to allow better transmission of GPCR ions.\nHigh-resolution MS was used to probe the drug/ligand interactions of human P2Y1R purified from insect cells. By controlled application of collisional activation, intact P2Y1R was liberated from its detergent micelle, preserving the non-covalent interactions formed in solution. The phosphate-containing detergent of Example 1 (Fos-16) was used in these experiments."}, "NTR1 [2]": {"molecular_target": "T1, NTR1 (Rattus norvegicus, UniProt P20789)", "T1 sequence (P20789 whole entry, the tested form may be a part)": "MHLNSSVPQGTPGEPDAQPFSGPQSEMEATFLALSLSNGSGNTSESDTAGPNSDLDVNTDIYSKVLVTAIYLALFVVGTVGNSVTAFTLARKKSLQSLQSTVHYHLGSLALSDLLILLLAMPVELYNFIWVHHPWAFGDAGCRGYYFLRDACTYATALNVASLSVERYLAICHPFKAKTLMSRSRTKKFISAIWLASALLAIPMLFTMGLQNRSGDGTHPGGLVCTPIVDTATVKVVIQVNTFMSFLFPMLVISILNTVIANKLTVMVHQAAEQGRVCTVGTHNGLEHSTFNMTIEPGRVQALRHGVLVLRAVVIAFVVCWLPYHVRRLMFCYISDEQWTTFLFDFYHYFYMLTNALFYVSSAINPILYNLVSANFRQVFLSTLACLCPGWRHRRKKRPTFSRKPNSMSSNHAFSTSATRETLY", "experiment": "Detergent screening by western blotting (receptor aggregation)", "conditions": "NTR1 solubilised from HEK293T cells in 1% detergent; compared with the other detergents tested (FIGS. 1A and B)", "description": "(§2) The gene fragment of rat NTR1 (wild-type, 1-424) with exogenous c-terminal Flag- and His-tag was constructed into modified pHLsec vector for transient protein overexpression. Plasmids were transfected into HEK293T cells via a liposome-based method with Lipofectamine 2000 transfection reagent and the cells were harvested 24 hrs after transfection for further experiments.\nHEK293T cells with NTR1 overexpression were lysed in lysis buffer (100 mM sodium phosphate, pH 7.2, 150 mM NaCl, 10% glycerol, 1× EDTA-free protease inhibitor cocktail from Roche) containing 1% various detergents for screening. Cell lysate was harvested after pelleting down the debris by centrifugation, and protein concentration was measured by Pierce 660 nm protein assay reagent (Pierce). Equal amounts of protein extract in different detergents were applied for western blotting to detect NTR1 by using an anti-His tag antibody. Semi-quantification was performed by Gel-pro software to quantify the protein amount and relative ratio of protein aggregation.\nVarious detergents were assessed for their ability to preserve the conformation and activity of NTR1. […]"}, "NTR1 [3]": {"molecular_target": "T1, NTR1", "experiment": "Detergent screening by neurotensin-binding assay (BODIPY-NT8-13)", "conditions": "BODIPY-NT8-13 bound to NTR1 in detergent extract, room temperature, 1 hr (FIG. 1C)", "description": "as §2\nProtein extract from HEK293T cells with NTR1 overexpression was incubated with BODIPY-labelled neurotensin 8-13 (BODIPY-NT8-13) at room temperature for 1 hr. The unbound BODIPY-NT8-13 was removed by Bio-Spin size exclusion spin column (Bio-rad) and the fluorescent signal of BODIPY-NT8-13 bound to receptor was detected by fluorescence microplate reader.\nVarious detergents were assessed for their ability to preserve the conformation and activity of NTR1. The detergents assessed were: (1) n-dodecyl-β-D-maltoside (DDM); (2) n-undecyl-β-D-maltoside (UDM); (3) n-nonyl-β-D-glucopyranoside (NG); (4) n-octyl-β-D-glucopyranoside (OG); (5) octyl glucose neopentyl glycol (OGNG); (6) n-octyl-β-D-thioglucopyranoside (OTG); (7) tetraethylene glycol monooctyl ether (C8E4); (8) hexaethylene glycol monodecyl ether (C10E6); (9) polyethylene glycol tert-octylphenyl ether (Triton X-100); (10) lauryldimethylamine-N-oxide (LDAO); and (11) hexadecylphosphocholine (Fos-Choline-16)."}, "NTR1 [4]": {"molecular_target": "T1, NTR1", "experiment": "Native mass spectrometry of PIP2 binding to NTR1 in Fos-Choline-16", "conditions": "after incubation of PIP2 and NTR1 in Fos-Choline-16 (FIG. 6A)", "description": "as §1\nPIP2 powder (Avanti) was dissolved into solvent containing chloroform, methanol and H2O with volume ratio of 20:9:1. The aliquoted PIP2 solution was dried out by gas-assisted evaporation and re-suspended into 50-200 mM ammonium acetate containing 0.00106% Fos-Choline-16, followed by sonication in water bath for 30 mins.\nThe measurement of GPCRs was performed on a modified Synapt G1 (Waters) or a modified Q-Exactive (Thermo) mass spectrometer. The data in Examples 2 and 4 were obtained using a Q-Exactive mass spectrometer, whereas the data in Example 3 were obtained using a Synapt G1 mass spectrometer. […]"}, "[5]": {"conditions": "1:0.5 molar ratio of protein to ATP (FIG. 3B)"}, "[6]": {"conditions": "endogenous nucleotide, purified P2Y1R, UniDec deconvolution (FIG. 2A)"}},
  "data": [
    {"compound": "Nc1ncnc2c1ncn2[C@@H]1O[C@H](COP(=O)(O)OP(=O)(O)OP(=O)(O)O)[C@@H](O)[C@H]1O", "note": "[ATP, adenosine 5′-triphosphate]", "values": [
      {"measurement": "ADP-bound receptor converted into the ATP bound state", "setting": "[1]; [5]", "value": "~30", "unit": "%"},
      {"measurement": "apo receptor converted into the ATP bound state", "setting": "[1]; [5]", "value": "around 80%"},
      {"measurement": "displacement of MRS2500 from the P2Y1R-MRS2500 complex", "setting": "[1]; 1:2 molar P2Y1R:ATP, 30 min incubation at 37° C. (FIG. 4)", "value": "complete displacement of MRS2500"},
      {"measurement": "further decrease of ADP binding", "setting": "[1]; 2 molar excess of ATP (FIG. 3C)", "value": 40, "unit": "%"},
      {"measurement": "ATP-binding ratio of phosphorylated P2Y1R", "setting": "[1]; [6]", "value": 39.6, "unit": "%"},
      {"measurement": "ATP-binding ratio of receptor without phosphorylation", "setting": "[1]; [6]", "value": 41.5, "unit": "%"}
    ]},
    {"compound": "CCCCCCCCCCCCCCCCOP(=O)([O-])OCC[N+](C)(C)C", "note": "[Fos-Choline-16, n-hexadecylphosphocholine]", "values": [
      {"measurement": "receptor aggregation and oligomerisation", "setting": "NTR1 [2]", "value": "less receptor aggregation and oligomerisation"},
      {"measurement": "ligand binding activity", "setting": "NTR1 [3]", "value": "substantially preserved"}
    ]},
    {"compound": "CNc1nc(I)nc2c1ncn2[C@H]1C[C@H](OP(=O)(O)O)[C@]2(COP(=O)(O)O)C[C@H]12", "note": "[MRS2500, (1′R2′S,4′S,5′S)-4-(2-iodo-6-methylamino-purine-9-yl)-1-[(phosphato)methyl] 2(phosphato)bicycle[3.1.0]-hexane]", "values": [
      {"measurement": "ADP binding in the presence of the drug", "setting": "[1]; P2Y1R purified in the presence of MRS2500", "value": "No ADP binding was detected"},
      {"measurement": "percentage of interaction with P2Y1R", "setting": "[1]; P2Y1R purified in the presence of MRS2500 (FIG. 2B)", "value": 100, "unit": "percentage"}
    ]},
    {"compound": "PIP2", "values": [
      {"measurement": "PIP2 binding of NTR1", "setting": "NTR1 [4]", "value": "Multiple binding"}
    ]}
  ]
}
